Source: patent US20070128217A1 (priority 2003, published 2007)

How the values were obtained:
[1] = tested on: antibodies in sera from SARS patients (sera 1a, 1b, 2, 6, 37, 62, London, SARS-yellow, SARS-green); assay type: binding, human; design: Binding of serum 6 to linear peptides of protein X1 of SARS-CoV Urbani / Binding of serum 37 to linear peptides of protein X1 of SARS-CoV Urbani / Binding of serum 6 to looped/cyclic peptide (PEPSCAN-ELISA) / Binding of serum 37 to looped/cyclic peptide (PEPSCAN-ELISA) / Binding of serum 37 to looped/cyclic peptides of protein X1 of SARS-CoV Urbani / Binding of serum 6 to linear peptides of protein X2 / Binding of serum 37 to linear peptides of protein X2 / Binding of serum 37 to looped/cyclic peptides of protein X2 of SARS-CoV Urbani / Binding of serum 6 to linear peptides of protein M of SARS-CoV Urbani / Binding of serum 37 to linear peptides of protein M of SARS-CoV Urbani / Binding of serum 6 to looped/cyclic peptides of protein M of SARS-CoV Urbani / Binding of serum 37 to looped/cyclic peptides of protein M of SARS-CoV Urbani / Binding of serum 6 to linear peptides of protein X3 of SARS-CoV Urbani / Binding of serum 37 to linear peptides of protein X3 of SARS-CoV Urbani / Binding of serum 37 to looped/cyclic peptides of protein X3 of SARS-CoV Urbani / Binding of serum 6 to linear peptides of protein X4 of SARS-CoV Urbani / Binding of serum 37 to linear peptides of protein X4 of SARS-CoV Urbani / Binding of serum 37 to looped/cyclic peptides of protein X4 of SARS-CoV Urbani / Binding of serum 6 to linear peptides of protein X5 of SARS-CoV Urbani / Binding of serum 37 to linear peptides of protein X5 of SARS-CoV Urbani / Binding of serum 37 to looped/cyclic peptides of protein X5 of SARS-CoV Urbani / Binding of serum 6 to linear peptides of protein N of SARS-CoV Urbani / Binding of serum 37 to linear peptides of protein N of SARS-CoV Urbani / Binding of serum 6 to linear peptide (PEPSCAN-ELISA) / Binding of serum 1a to looped/cyclic peptides of protein N of SARS-CoV Urbani / Binding of serum 1b to looped/cyclic peptides of protein N of SARS-CoV Urbani / Binding of serum 2 to looped/cyclic peptides of protein N of SARS-CoV Urbani / Binding of serum 6 to looped/cyclic peptides of protein N of SARS-CoV Urbani / Binding of serum 37 to looped/cyclic peptides of protein N of SARS-CoV Urbani / Binding of serum 62 to looped/cyclic peptides of protein N of SARS-CoV Urbani / Binding of serum London to looped/cyclic peptides of protein N of SARS-CoV Urbani / Binding of serum SARS-green to looped/cyclic peptides of protein N of SARS-CoV Urbani: unit not given here
[2] = tested on: control sera (pooled serum of ten healthy LUMC hospital workers; commercial negative donor pooled serum from the Dutch bloodbank); assay type: binding, human; design: Binding of Control serum LUMC to linear peptides / Binding of Control serum Blood-bank to linear peptides / Binding of Control serum LUMC to looped peptides / Binding of Control Serum Blood-Bank to Looped peptides / Binding of Control serum LUMC to linear peptides of the protein M of SARS-CoV Urbani / Binding of Control serum Blood-bank to linear peptides of the protein M of SARS-CoV Urbani / Binding of Control serum LUMC to looped peptides of the protein M of SARS-CoV Urbani / Binding of Control Serum Blood-Bank to Looped peptides of the protein M of SARS-CoV Urbani: unit not given here
[3] = tested on: rabbit serum obtained by immunizing a rabbit with the SARS-CoV strain Frankfurt 1; assay type: binding; design: Binding of a rabbit serum to linear peptides / Binding of a rabbit serum to looped peptides / Rabbit serum linear peptides / Rabbit serum looped peptides / Binding of a rabbit serum to linear peptides of protein N of SARS-CoV Urbani (Rabbit serum linear peptides) / Binding of a rabbit serum to looped/cyclic peptides of protein N of SARS-CoV Urbani (Rabbit serum looped peptides): unit not given here

Sequence: AAFRDVLVVLNKRTN
- Binding of serum 1a to linear peptides of protein X5 of SARS-CoV Urbani [1]: 0.6
- Binding of serum 1a to looped/cyclic peptides of protein X5 of SARS-CoV Urbani [1]: 0.6
- Binding of serum 1b to linear peptides of protein X5 of SARS-CoV Urbani [1]: 0.6
- Binding of serum 1b to looped/cyclic peptides of protein X5 of SARS-CoV Urbani [1]: 0.4
- Binding of serum 2 to linear peptides of protein X5 of SARS-CoV Urbani [1]: 0.6
- Binding of serum 2 to looped/cyclic peptides of protein X5 of SARS-CoV Urbani [1]: 0.6
- Binding of serum 6 to linear peptides of protein X5 of SARS-CoV Urbani [1]: 0.8
- Binding of serum 6 to looped/cyclic peptides of protein X5 of SARS-CoV Urbani [1]: 0.8
- Binding of serum 37 to linear peptides of protein X5 of SARS-CoV Urbani [1]: 0.5
- Binding of serum 37 to looped/cyclic peptides of protein X5 of SARS-CoV Urbani [1]: 0.6
- Binding of serum 62 to linear peptides of protein X5 of SARS-CoV Urbani [1]: 0.4
- Binding of serum 62 to looped/cyclic peptides of protein X5 of SARS-CoV Urbani [1]: 0.5
- Binding of serum London to linear peptides of protein X5 of SARS-CoV Urbani [1]: 0.6
- Binding of serum London to looped/cyclic peptides of protein X5 of SARS-CoV Urbani [1]: 1.0
- Binding of serum SARS-green to linear peptides of protein X5 of SARS-CoV Urbani [1]: 0.1
- Binding of serum SARS-green to looped/cyclic peptides of protein X5 of SARS-CoV Urbani [1]: 0.4
- Binding of serum SARS-yellow to linear peptides of protein X5 of SARS-CoV Urbani [1]: 0.8
- Binding of serum SARS-yellow to looped/cyclic peptides of protein X5 of SARS-CoV Urbani [1]: 0.3
- Binding of Control Serum Blood-Bank to Looped peptides [2]: 0.7
- Binding of Control serum Blood-bank to linear peptides [2]: 0.6
- Binding of Control serum LUMC to linear peptides [2]: 0.8
- Binding of Control serum LUMC to looped peptides [2]: 0.4
- Rabbit serum linear peptides [3]: 0.5
- Rabbit serum looped peptides [3]: 0.6

Sequence: AAGMEAQFLYLYALI
- Binding of serum 1a to linear peptides of protein X1 of SARS-CoV Urbani [1]: 0.7
- Binding of serum 1a to looped/cyclic peptide (PEPSCAN-ELISA) [1]: 0.6
- Binding of serum 1b to linear peptides of protein X1 of SARS-CoV Urbani [1]: 0.6
- Binding of serum 1b to looped/cyclic peptide (PEPSCAN-ELISA) [1]: 0.4
- Binding of serum 2 to linear peptides of protein X1 of SARS-CoV Urbani [1]: 0.6
- Binding of serum 2 to looped/cyclic peptide (PEPSCAN-ELISA) [1]: 0.5
- Binding of serum 6 to linear peptides of protein X1 of SARS-CoV Urbani [1]: 0.5
- Binding of serum 6 to looped/cyclic peptide (PEPSCAN-ELISA) [1]: 0.3
- Binding of serum 37 to linear peptides of protein X1 of SARS-CoV Urbani [1]: 0.5
- Binding of serum 37 to looped/cyclic peptide (PEPSCAN-ELISA) [1]: 0.6
- Binding of serum 62 to linear peptides of protein X1 of SARS-CoV Urbani [1]: 0.5
- Binding of serum 62 to looped/cyclic peptide (PEPSCAN-ELISA) [1]: 0.6
- Binding of serum London to linear peptides of protein X1 of SARS-CoV Urbani [1]: 0.2
- Binding of serum London to looped/cyclic peptide (PEPSCAN-ELISA) [1]: 0.2
- Binding of serum SARS-green to linear peptides of protein X1 of SARS-CoV Urbani [1]: 0.2
- Binding of serum SARS-green to looped/cyclic peptide (PEPSCAN-ELISA) [1]: 0.3
- Binding of serum SARS-yellow to linear peptides of protein X1 of SARS-CoV Urbani [1]: 0.3
- Binding of serum SARS-yellow to looped/cyclic peptide (PEPSCAN-ELISA) [1]: 0.4
- Binding of Control Serum Blood-Bank to Looped peptides [2]: 0.5
- Binding of Control serum Blood-bank to linear peptides [2]: 0.5
- Binding of Control serum LUMC to linear peptides [2]: 0.9
- Binding of Control serum LUMC to looped peptides [2]: 0.7
- Binding of a rabbit serum to linear peptides [3]: 0.1
- Binding of a rabbit serum to looped peptides [3]: 0.6

Sequence: VSLVKPTVYVYSRVK
- Binding of Control Serum Blood-Bank to Looped peptides [2]: 0.6
- Binding of Control serum Blood-bank to linear peptides [2]: 0.9
- Binding of Control serum LUMC to linear peptides [2]: 0.6
- Binding of Control serum LUMC to looped peptides [2]: 0.9
- Binding of a rabbit serum to linear peptides [3]: 1.5
- Binding of a rabbit serum to looped peptides [3]: 2.0

Sequence: VYSRVKNLNSSEGVP
- Binding of Control Serum Blood-Bank to Looped peptides [2]: 1.0
- Binding of Control serum Blood-bank to linear peptides [2]: 0.9
- Binding of Control serum LUMC to linear peptides [2]: 0.6
- Binding of Control serum LUMC to looped peptides [2]: 0.7
- Binding of a rabbit serum to linear peptides [3]: 0.7
- Binding of a rabbit serum to looped peptides [3]: 0.0

Sequence: VYVYSRVKNLNSSEG
- Binding of Control Serum Blood-Bank to Looped peptides [2]: 0.8
- Binding of Control serum Blood-bank to linear peptides [2]: 0.5
- Binding of Control serum LUMC to linear peptides [2]: 0.8
- Binding of Control serum LUMC to looped peptides [2]: 0.8
- Binding of a rabbit serum to linear peptides [3]: 0.3
- Binding of a rabbit serum to looped peptides [3]: 0.4

Sequence: WHTHNYDYCIPYNSV
- Binding of Control Serum Blood-Bank to Looped peptides [2]: 0.7
- Binding of Control serum Blood-bank to linear peptides [2]: 0.7
- Binding of Control serum LUMC to linear peptides [2]: 0.8
- Binding of Control serum LUMC to looped peptides [2]: 0.9
- Binding of a rabbit serum to linear peptides [3]: 0.1
- Binding of a rabbit serum to looped peptides [3]: 0.6

Sequence: WHTMVQTCTPNVTIN
- Binding of Control Serum Blood-Bank to Looped peptides [2]: 0.5
- Binding of Control serum Blood-bank to linear peptides [2]: 1.0
- Binding of Control serum LUMC to linear peptides [2]: 0.5
- Binding of Control serum LUMC to looped peptides [2]: 0.4
- Rabbit serum linear peptides [3]: 0.5
- Rabbit serum looped peptides [3]: 0.0

Sequence: YCCNIVNVSLVKPTV
- Binding of Control Serum Blood-Bank to Looped peptides [2]: 0.7
- Binding of Control serum Blood-bank to linear peptides [2]: 0.9
- Binding of Control serum LUMC to linear peptides [2]: 0.6
- Binding of Control serum LUMC to looped peptides [2]: 0.6
- Binding of a rabbit serum to linear peptides [3]: 0.7
- Binding of a rabbit serum to looped peptides [3]: 0.3

Sequence: YCIPYNSVTDTIVVT
- Binding of Control Serum Blood-Bank to Looped peptides [2]: 0.7
- Binding of Control serum Blood-bank to linear peptides [2]: 0.8
- Binding of Control serum LUMC to linear peptides [2]: 0.7
- Binding of Control serum LUMC to looped peptides [2]: 0.7
- Binding of a rabbit serum to linear peptides [3]: 0.1
- Binding of a rabbit serum to looped peptides [3]: 0.5

Sequence: YDYCIPYNSVTDTIV
- Binding of Control Serum Blood-Bank to Looped peptides [2]: 0.5
- Binding of Control serum Blood-bank to linear peptides [2]: 0.6
- Binding of Control serum LUMC to linear peptides [2]: 0.7
- Binding of Control serum LUMC to looped peptides [2]: 0.6
- Binding of a rabbit serum to linear peptides [3]: 0.1
- Binding of a rabbit serum to looped peptides [3]: 0.5

Sequence: YFVCWHTHNYDYCIP
- Binding of Control Serum Blood-Bank to Looped peptides [2]: 0.6
- Binding of Control serum Blood-bank to linear peptides [2]: 0.6
- Binding of Control serum LUMC to linear peptides [2]: 0.7
- Binding of Control serum LUMC to looped peptides [2]: 0.6
- Binding of a rabbit serum to linear peptides [3]: 0.1
- Binding of a rabbit serum to looped peptides [3]: 0.6

Sequence: YKLGASQRVGTDSGF
- Binding of Control Serum Blood-Bank to Looped peptides of the protein M of SARS-CoV Urbani [2]: 0.7
- Binding of Control serum Blood-bank to linear peptides of the protein M of SARS-CoV Urbani [2]: 0.7
- Binding of Control serum LUMC to linear peptides of the protein M of SARS-CoV Urbani [2]: 0.4
- Binding of Control serum LUMC to looped peptides of the protein M of SARS-CoV Urbani [2]: 0.9
- Rabbit serum linear peptides [3]: 0.4
- Rabbit serum looped peptides [3]: 0.2

Sequence: YQECVRGTTVLLKEP
- Binding of Control Serum Blood-Bank to Looped peptides [2]: 0.9
- Binding of Control serum Blood-bank to linear peptides [2]: 0.8
- Binding of Control serum LUMC to linear peptides [2]: 0.7
- Binding of Control serum LUMC to looped peptides [2]: 0.8
- Rabbit serum linear peptides [3]: 0.5
- Rabbit serum looped peptides [3]: 0.5

Sequence: YSEDRHSGVKDYVVV
- Binding of Control Serum Blood-Bank to Looped peptides [2]: 0.7
- Binding of Control serum Blood-bank to linear peptides [2]: 0.7
- Binding of Control serum LUMC to linear peptides [2]: 0.6
- Binding of Control serum LUMC to looped peptides [2]: 0.8
- Binding of a rabbit serum to linear peptides [3]: 0.1
- Binding of a rabbit serum to looped peptides [3]: 0.4

Sequence: YSELDDEEPMELDYP
- Binding of Control Serum Blood-Bank to Looped peptides of the protein X3 of SARS-CoV Urbani [2]: 0.8
- Binding of Control serum Blood-bank to linear peptides of the protein X3 of SARS-CoV Urbani [2]: 0.7
- Binding of Control serum LUMC to linear peptides of the protein X3 of SARS-CoV Urbani [2]: 0.9
- Binding of Control serum LUMC to looped peptides of the protein X3 of SARS-CoV Urbani [2]: 0.8
- Rabbit serum linear peptides [3]: 0.3
- Rabbit serum looped peptides [3]: 0.3
